In patent US7919577B2, “Adrenocorticotropic hormone analogs and related methods” (Colorado Seminary, priority 2004, dated 2011):

Assays:
[1] = test system: dexamethasone-suppressed male FVB/N mice; assay: in vivo Serum Corticosteroid Inhibition Assay (Example 2); set-up: species or system mouse; settings: mACTH(1-24) alone 120 minutes after dexamethasone, blood one hour later
Protocol: The in vivo Serum Corticosteroid Inhibition Assay can include sequential administration of the test compound and the corticosteroid-producing compound by the following steps: first, an agent to suppress endogenous ACTH production was administered to a mouse subject, such as an intraperitoneal injection of dexamethasone; second, after waiting a suitable period of time for suppression of endogenous ACTH production (e.g., 1.5-2.0 hours), a test compound was administered to the mouse by a suitable method, such as intraperitoneal injection; third, after waiting a suitable period of time (e.g., 1 hour) for action of the test compound, a compound with corticosteroid-producing activity can be administered to the mouse by a suitable method, such as intraperitoneal injection; and fourth, after waiting a suitable period of time for the biological activity of both administered compounds to occur (e.g., 1 hour), a blood sample was taken from the subject and the level of serum corticosterone was determined by a suitable method, such as a competitive radioimmunoassay using ^125I RIA kit (ICN, Costa Mesa, Calif.). Optionally, steps two and three can be reversed (administering the corticosteroid-producing compound first, followed by administration of the test compound). The in vivo Serum Corticosteroid Inhibition Assay can also include co-administration of the test compound and the corticosteroid-producing compound by the following steps: first, an agent to suppress endogenous ACTH production was administered to a mouse subject, such as an intraperitoneal injection of dexamethasone; second, after waiting a suitable period of time for suppression of endogenous ACTH production (e.g., 1.5-2.0 hours), the corticosteroid-producing compound and a test compound were co-administered to the mouse by a suitable method, such as intraperitoneal injection; and third, after waiting a suitable period of time for the biological activity of both administered compounds to occur (e.g., 1 hour), a blood sample was taken from the subject and the level of serum corticosterone was determined by a suitable method, such as a competitive radioimmunoassay using ^125I RIA kit (ICN, Costa Mesa, Calif.). Also, in some embodiments, the first step in any in vivo Serum Corticosteroid Inhibition Assay can be replaced by a measurement of the initial endogenous corticosteroid or corticosteroid level in the blood of the subject in the manner of step four, instead of administering the agent to suppress ACTH production. Example 2 describes murine in vivo Serum Corticosteroid Inhibition Assays in detail.
A series of separate in vivo Serum Corticosteroid Inhibition Assays were performed to identify ACTH analogs that inhibit ACTH adrenal hormone production in vivo. The serum corticosterone levels of dexamethasone-suppressed mice were measured as described in Example 2 after administration of (1) ACTH (corticosteroid-producing compound), (2) an ACTH analog (test compound) followed by subsequent administration of ACTH, (3) a combination of ACTH and the ACTH analog and (4) the ACTH analog alone.
The in vivo Serum Corticosteroid Inhibition Assay was performed according the following method. The ACTH analog test compounds, such as those showing low activities in Example 1, were tested for their abilities to inhibit adrenal hormone production induced by unmodified ACTH.
First, two to three month-old male FVB/N mice from our colony, five per group, were injected intraperitoneally with dexamethasone (0.4 mg/0.1 ml PBS per mouse; Sigma, St. Louis, Mo.) to suppress their endogenous ACTH production.
Second, ninety to one hundred twenty minutes later, animals were injected subcutaneously between the shoulder blades with wild type ACTH and/or test ACTH analog peptides (1 μg/0.1 mL PBS/0.5% BSA) or with vehicle alone (0.1 mL PBS/0.5% BSA). […]

[2] = molecular target: T1, adrenal ACTH receptors such as MC-2R (explanted adrenal membrane) (Mus musculus, UniProt Q64326+Q9D159); assay: in vitro Serum-free Adrenal Competitive Binding Assay (Example 3); settings: cold peptide at 10 nM, 100 nM, 1000 nM; CPM; FIG. 3
T1 construct: the adrenal halves were macerated or otherwise dissociated using Dounce Homogenizer to form a membrane fraction; from tissue; host or cells: mouse adrenal glands (explanted, homogenised to a membrane fraction)
Text: ACTH analog compounds that bind to adrenal membrane with a greater affinity than endogenous unmodified ACTH, and are able to displace unmodified ACTH can be identified using an in vitro Serum-free Adrenal Competitive Binding Assay (Example 3). […] A higher CPM level indicates the presence of greater amounts of the radiolabelled compound. […] Column 220 indicates the level of radio-labeled unmodified mACTH(1-24) detected after combining the explanted adrenal membrane with only the radio-labeled mACTH(1-24) for 2 hours (no competitive binding). Columns 230, 240, and 250 show the results of competitive binding assays for binding of non-radio-labeled (“cold”) mACTH(1-24) to displace the radio-labeled mACTH(1-24) from the explanted adrenal membrane (measured in column 220) by competitive binding to receptors such as MC-2R on the adrenal membrane. […]
ACTH analogs with the ability to bind adrenal receptors with a greater affinity than compounds with known adrenal binding activity (preferably ACTH) can also be identified by performing an in vitro Adrenal Competitive Binding Assay, whereby measurement of the reduction in the amount of the radiolabelled adrenal-binding compound (e.g., ACTH) is measured at various concentrations of non-radio-labeled ACTH analog test compound in a medium containing explanted adrenal membrane. […]

[3] = cited from earlier work

T1 sequence (Q64326 whole entry): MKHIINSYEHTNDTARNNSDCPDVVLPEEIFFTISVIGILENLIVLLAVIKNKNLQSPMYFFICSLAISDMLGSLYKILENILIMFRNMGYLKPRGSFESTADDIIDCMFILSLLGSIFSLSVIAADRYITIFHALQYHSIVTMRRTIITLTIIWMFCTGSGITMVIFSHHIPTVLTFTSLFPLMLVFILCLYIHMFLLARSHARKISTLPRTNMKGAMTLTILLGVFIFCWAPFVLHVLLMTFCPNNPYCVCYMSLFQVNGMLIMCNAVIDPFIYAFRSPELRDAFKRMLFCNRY
T1 sequence (Q9D159 whole entry): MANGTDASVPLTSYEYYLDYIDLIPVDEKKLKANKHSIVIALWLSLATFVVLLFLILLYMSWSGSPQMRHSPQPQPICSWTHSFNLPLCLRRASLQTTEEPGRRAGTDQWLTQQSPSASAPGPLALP

N-Ser^1-Tyr-Ser-Met-Glu^5-His-Phe-Arg-Trp-Gly^10-Lys-Pro-Val-Gly-Lys^15-Lys-Arg-Arg-Pro-Val^20-Lys-Val-Tyr-Pro-Ac [mACTH(1-24), reference compound]
serum corticosterone at 180 minutes [1]: 500 ± 76 ng/mL
serum corticosterone at 180 minutes ([1]; listed as ACTH): 500 ± 76 ng/mL
displacement of radio-labeled mACTH(1-24) from explanted adrenal membrane [2]: displacement of the radio-labeled mACTH(1-24)
half life in blood [3]: less than 20 minutes
